How the values were obtained:
Assay in all cases: KINOMEscan
Format in all cases: binding
ALK(C1156Y) = target: T1, ALK(C1156Y) (Homo sapiens, UniProt Q9UM73, C1156Y); settings: read-out: % control activity remaining
T1 construct: purchased Eurofins DiscoverX KINOMEscan

BMPR2 = target: T2, BMPR2 (Homo sapiens, UniProt Q13873); settings: read-out: % control activity remaining
T2 construct: purchased Eurofins DiscoverX KINOMEscan
T2 sequence (Q13873 27-1038): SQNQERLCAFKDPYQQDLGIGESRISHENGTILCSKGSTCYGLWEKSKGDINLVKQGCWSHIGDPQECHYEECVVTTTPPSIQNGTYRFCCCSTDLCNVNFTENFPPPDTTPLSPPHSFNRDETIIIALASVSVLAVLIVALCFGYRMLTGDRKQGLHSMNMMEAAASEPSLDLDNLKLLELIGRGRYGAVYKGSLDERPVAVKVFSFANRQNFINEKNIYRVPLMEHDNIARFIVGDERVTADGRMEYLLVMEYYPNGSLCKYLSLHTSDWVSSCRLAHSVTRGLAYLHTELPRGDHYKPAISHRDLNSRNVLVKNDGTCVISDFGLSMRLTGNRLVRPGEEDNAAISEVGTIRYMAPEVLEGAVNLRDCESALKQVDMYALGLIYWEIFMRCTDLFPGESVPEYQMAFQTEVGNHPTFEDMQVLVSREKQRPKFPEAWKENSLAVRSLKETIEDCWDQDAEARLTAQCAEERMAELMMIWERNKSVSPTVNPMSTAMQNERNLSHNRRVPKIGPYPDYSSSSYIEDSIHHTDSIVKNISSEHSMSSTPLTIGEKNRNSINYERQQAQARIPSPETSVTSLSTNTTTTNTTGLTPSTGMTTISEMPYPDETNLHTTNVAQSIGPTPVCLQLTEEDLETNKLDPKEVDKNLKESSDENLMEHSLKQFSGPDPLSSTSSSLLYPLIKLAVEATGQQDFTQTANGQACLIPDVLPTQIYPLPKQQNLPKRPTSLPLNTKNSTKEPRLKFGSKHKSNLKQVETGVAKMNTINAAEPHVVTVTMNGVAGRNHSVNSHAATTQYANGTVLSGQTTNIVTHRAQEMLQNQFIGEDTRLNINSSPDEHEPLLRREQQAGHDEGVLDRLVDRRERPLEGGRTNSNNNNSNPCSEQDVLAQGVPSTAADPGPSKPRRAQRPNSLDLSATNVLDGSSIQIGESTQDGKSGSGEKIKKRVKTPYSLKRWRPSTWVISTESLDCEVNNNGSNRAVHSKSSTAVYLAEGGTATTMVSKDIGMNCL

FLT3(K663Q) = target: T3, FLT3(K663Q) (Homo sapiens, UniProt P36888, K663Q); settings: read-out: % control activity remaining
T3 construct: purchased Eurofins DiscoverX KINOMEscan
T3 sequence (P36888 27-993 K663Q): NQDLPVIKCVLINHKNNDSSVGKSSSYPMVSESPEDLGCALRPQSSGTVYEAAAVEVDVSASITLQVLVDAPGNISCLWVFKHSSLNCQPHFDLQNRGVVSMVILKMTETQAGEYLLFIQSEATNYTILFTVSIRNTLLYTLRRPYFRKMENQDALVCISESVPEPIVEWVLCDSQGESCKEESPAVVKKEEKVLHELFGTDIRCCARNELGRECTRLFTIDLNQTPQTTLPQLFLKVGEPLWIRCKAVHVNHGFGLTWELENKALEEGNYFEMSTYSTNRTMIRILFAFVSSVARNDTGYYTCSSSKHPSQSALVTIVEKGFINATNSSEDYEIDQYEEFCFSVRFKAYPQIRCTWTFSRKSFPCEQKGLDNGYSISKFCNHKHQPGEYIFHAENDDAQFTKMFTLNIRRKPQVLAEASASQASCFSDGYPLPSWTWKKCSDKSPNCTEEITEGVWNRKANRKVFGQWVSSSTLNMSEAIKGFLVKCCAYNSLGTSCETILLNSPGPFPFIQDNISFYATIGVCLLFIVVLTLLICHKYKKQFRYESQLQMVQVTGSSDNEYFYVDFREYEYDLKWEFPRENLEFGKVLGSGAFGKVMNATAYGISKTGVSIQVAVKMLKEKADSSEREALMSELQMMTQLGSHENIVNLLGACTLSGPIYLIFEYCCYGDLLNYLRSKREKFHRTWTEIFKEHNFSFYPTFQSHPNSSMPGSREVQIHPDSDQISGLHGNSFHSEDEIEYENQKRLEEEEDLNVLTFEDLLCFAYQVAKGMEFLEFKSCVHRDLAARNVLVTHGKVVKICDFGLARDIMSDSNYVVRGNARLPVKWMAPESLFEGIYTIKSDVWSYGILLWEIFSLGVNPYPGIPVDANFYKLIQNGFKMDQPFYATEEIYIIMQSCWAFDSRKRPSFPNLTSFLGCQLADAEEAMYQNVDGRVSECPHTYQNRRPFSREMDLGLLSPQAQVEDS

KIT = target: T4, KIT (Homo sapiens, UniProt P10721); settings: read-out: % control activity remaining
T4 construct: purchased Eurofins DiscoverX KINOMEscan

MLCK = target: T5, MLCK (Homo sapiens, UniProt Q32MK0); settings: for remaining binding at 1 µM: read-out: % control activity remaining
T5 construct: purchased Eurofins DiscoverX KINOMEscan
T5 sequence (Q32MK0 1-819): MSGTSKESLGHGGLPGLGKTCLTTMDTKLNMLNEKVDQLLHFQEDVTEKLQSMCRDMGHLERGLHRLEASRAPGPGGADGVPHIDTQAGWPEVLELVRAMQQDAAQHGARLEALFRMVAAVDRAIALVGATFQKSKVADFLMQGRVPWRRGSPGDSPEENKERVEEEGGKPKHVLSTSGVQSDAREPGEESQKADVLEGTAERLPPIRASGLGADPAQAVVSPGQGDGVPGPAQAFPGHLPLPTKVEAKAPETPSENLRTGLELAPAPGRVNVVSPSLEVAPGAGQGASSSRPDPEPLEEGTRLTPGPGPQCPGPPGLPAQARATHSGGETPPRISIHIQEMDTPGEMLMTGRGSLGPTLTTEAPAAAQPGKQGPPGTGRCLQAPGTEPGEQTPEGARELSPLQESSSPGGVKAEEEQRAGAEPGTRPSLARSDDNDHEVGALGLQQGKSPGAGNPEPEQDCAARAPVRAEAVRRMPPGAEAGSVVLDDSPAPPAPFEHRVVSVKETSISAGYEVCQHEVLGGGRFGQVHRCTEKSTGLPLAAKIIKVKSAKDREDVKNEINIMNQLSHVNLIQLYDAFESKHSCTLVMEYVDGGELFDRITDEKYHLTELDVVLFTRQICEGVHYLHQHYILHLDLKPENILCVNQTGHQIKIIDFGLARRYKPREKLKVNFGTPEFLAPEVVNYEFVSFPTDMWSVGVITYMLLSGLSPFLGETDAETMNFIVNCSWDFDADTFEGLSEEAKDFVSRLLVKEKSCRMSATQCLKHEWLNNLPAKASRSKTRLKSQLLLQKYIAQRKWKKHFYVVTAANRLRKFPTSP

T1 sequence (Q9UM73 19-1620 C1156Y): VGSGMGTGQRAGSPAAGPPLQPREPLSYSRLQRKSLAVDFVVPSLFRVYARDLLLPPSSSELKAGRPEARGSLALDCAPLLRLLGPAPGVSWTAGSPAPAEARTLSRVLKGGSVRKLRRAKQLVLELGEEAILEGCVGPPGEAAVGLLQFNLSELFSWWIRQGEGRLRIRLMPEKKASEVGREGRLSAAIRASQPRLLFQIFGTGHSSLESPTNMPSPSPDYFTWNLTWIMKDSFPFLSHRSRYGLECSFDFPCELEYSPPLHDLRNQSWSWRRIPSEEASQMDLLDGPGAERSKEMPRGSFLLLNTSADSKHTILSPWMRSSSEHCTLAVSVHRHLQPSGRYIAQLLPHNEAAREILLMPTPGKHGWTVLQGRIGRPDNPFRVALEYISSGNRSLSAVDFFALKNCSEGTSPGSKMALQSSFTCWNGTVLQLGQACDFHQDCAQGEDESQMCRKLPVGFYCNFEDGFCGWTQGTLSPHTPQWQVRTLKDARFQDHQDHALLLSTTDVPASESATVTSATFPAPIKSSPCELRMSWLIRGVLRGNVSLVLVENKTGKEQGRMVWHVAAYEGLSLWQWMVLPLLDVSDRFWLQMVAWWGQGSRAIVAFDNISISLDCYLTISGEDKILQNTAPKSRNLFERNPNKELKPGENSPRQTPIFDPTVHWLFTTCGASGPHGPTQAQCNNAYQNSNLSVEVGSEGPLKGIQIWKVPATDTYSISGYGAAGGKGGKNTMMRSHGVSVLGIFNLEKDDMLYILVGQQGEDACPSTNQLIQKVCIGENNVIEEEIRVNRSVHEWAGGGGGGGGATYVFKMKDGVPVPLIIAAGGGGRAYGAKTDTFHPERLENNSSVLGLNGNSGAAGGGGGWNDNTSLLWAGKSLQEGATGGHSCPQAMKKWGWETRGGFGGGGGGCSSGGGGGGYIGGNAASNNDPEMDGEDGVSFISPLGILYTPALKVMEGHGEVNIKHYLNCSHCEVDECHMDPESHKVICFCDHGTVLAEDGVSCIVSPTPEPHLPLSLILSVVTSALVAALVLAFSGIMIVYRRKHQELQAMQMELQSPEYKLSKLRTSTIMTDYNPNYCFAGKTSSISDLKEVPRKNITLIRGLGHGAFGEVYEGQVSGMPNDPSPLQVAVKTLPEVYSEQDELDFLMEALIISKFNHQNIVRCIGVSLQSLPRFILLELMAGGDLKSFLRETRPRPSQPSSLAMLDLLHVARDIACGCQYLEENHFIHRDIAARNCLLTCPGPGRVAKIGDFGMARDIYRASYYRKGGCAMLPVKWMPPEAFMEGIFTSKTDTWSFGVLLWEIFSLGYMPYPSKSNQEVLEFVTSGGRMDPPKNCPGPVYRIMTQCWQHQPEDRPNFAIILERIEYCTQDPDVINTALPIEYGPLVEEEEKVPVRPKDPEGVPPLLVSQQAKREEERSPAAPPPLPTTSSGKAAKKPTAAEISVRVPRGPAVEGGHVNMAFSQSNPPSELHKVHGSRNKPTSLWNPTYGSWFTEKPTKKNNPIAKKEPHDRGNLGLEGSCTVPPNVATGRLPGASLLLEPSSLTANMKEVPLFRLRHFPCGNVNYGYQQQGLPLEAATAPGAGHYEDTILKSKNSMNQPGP
T4 sequence (P10721 26-976): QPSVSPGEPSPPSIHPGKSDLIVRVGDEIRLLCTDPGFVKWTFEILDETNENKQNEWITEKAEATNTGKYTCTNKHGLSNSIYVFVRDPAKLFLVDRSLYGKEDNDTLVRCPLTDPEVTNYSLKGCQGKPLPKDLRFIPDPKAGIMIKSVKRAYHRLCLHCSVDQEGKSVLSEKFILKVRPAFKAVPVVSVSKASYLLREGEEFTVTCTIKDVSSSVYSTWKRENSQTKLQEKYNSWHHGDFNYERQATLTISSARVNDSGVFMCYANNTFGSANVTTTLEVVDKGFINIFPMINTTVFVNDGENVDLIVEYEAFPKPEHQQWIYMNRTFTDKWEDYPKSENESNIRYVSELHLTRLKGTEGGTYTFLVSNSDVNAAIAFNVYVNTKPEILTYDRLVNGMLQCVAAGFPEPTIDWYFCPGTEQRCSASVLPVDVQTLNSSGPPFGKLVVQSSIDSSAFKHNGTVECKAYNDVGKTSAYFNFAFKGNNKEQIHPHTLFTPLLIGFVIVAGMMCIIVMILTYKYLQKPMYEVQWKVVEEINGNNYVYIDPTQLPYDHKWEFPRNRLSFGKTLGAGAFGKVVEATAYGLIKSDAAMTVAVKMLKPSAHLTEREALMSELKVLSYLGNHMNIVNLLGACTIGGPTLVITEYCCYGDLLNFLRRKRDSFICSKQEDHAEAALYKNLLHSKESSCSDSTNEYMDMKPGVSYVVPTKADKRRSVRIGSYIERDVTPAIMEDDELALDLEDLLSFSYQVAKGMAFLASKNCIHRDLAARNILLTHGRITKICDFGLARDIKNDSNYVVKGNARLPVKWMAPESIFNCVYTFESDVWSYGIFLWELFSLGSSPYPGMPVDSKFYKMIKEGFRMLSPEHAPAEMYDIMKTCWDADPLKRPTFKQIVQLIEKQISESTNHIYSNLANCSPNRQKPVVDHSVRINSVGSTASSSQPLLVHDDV

Compound | remaining binding at 1 µM (ALK(C1156Y)) | remaining binding at 1 µM (BMPR2) | remaining binding at 1 µM (FLT3(K663Q)) | remaining binding at 1 µM (KIT) | remaining binding at 1 µM (MLCK) | inhibition at 1 µM (MLCK; read-out: Probe binding inhibited)
Clc1cc(NCC2CC2)c2ncc(-c3ccc4[nH]ncc4c3)n2n1 [compound 2, 6-Chloro-N-(cyclopropylmethyl)-3-(1H-indazol-5-yl)imidazo[1,2-b]pyridazin-8-amine] | 88% | 96% | 3.8% | 1.6% | 80% | –
O=C(CN1CCOCC1)N[C@H]1CC[C@H](Nc2cc(Cl)nn3c(-c4ccc5[nH]ncc5c4)cnc23)CC1 [compound 26] | 64% | 100% | 13% | 0% | 6.6% | > 90%
CN1CCC(CNc2cc(Cl)nn3c(-c4cc5nc(Nc6ccccc6)[nH]c5cc4F)cnc23)CC1 [compound 31, 6-Chloro-3-(6-fluoro-2-(phenylamino)-1H-benzo[d]imidazol-5-yl)-N-((1-methylpiperidin-4-yl)methyl)imidazo[1,2-b]pyridazin-8-amine] | 91% | 91% | 83% | 68% | 89% | –
